According to ChEMBL document CHEMBL4507324 (2021):

Experiments:
Conditions in all cases: Compound concentration 100.0 nM
[1] = target: Activin receptor type-2A (Homo sapiens) (UniProt P27037)
[2] = target: Calcium/calmodulin-dependent protein kinase kinase 1 (Homo sapiens) (UniProt Q8N5S9)
[3] = target: Serine/threonine-protein kinase SIK1 (Homo sapiens) (UniProt P57059)
[4] = target: Tyrosine-protein kinase FRK (Homo sapiens) (UniProt P42685)
[5] = target: Receptor tyrosine-protein kinase erbB-3 (Homo sapiens) (UniProt P21860)
[6] = target: Tyrosine-protein kinase Mer (Homo sapiens) (UniProt Q12866)
[7] = target: Inhibitor of nuclear factor kappa-B kinase subunit alpha (Homo sapiens) (UniProt O15111)
[8] = target: Tyrosine-protein kinase CSK (Homo sapiens) (UniProt P41240)
[9] = target: Receptor tyrosine-protein kinase erbB-4 (Homo sapiens) (UniProt Q15303)
[10] = tested on: Epidermal growth factor receptor (Homo sapiens), P00533 [G719C]
[11] = target: Serine/threonine-protein kinase TAO2 (Homo sapiens) (UniProt Q9UL54)
[12] = target: Serine/threonine-protein kinase Sgk1 (Homo sapiens) (UniProt O00141)
[13] = target: Serine/threonine-protein kinase ULK1 (Homo sapiens) (UniProt O75385)
[14] = target: Serine/threonine-protein kinase tousled-like 1 (Homo sapiens) (UniProt Q9UKI8)
[15] = tested on: Tyrosine-protein kinase ABL1 (Homo sapiens), P00519 [T315I]
[16] = target: Serine/threonine-protein kinase ULK2 (Homo sapiens) (UniProt Q8IYT8)
[17] = tested on: Tyrosine-protein kinase ABL1 (Homo sapiens), P00519 [M351T]
[18] = target: Aurora kinase C (Homo sapiens) (UniProt Q9UQB9)
[19] = tested on: Phosphatidylinositol 4,5-bisphosphate 3-kinase catalytic subunit alpha isoform (Homo sapiens), P42336 [I800L]
[20] = target: Macrophage-stimulating protein receptor (Homo sapiens) (UniProt Q04912)
[21] = tested on: Tyrosine-protein kinase ABL1 (Homo sapiens), P00519 [T315I]; remark: listed apart in the source
[22] = target: Serine/threonine-protein kinase tousled-like 2 (Homo sapiens) (UniProt Q86UE8)
[23] = target: TGF-beta receptor type-1 (Homo sapiens) (UniProt P36897)
[24] = target: Serine/threonine-protein kinase Nek5 (Homo sapiens) (UniProt Q6P3R8)
[25] = target: Citron Rho-interacting kinase (Homo sapiens) (UniProt O14578)
[26] = target: BDNF/NT-3 growth factors receptor (Homo sapiens) (UniProt Q16620)
[27] = target: Cyclin-dependent kinase-like 1 (Homo sapiens) (UniProt Q00532)
[28] = target: Fibroblast growth factor receptor 1 (Homo sapiens) (UniProt P11362)
[29] = target: Mitogen-activated protein kinase kinase kinase 6 (Homo sapiens) (UniProt O95382)
[30] = target: Cyclin-dependent kinase 18 (Homo sapiens) (UniProt Q07002)
[31] = target: Ribosomal protein S6 kinase beta-1 (Homo sapiens) (UniProt P23443)
[32] = target: cGMP-dependent protein kinase 2 (Homo sapiens) (UniProt Q13237)
[33] = target: Tyrosine-protein kinase ZAP-70 (Homo sapiens) (UniProt P43403)
[34] = tested on: Mast/stem cell growth factor receptor Kit (Homo sapiens), P10721 [V559D]
[35] = target: Ephrin type-B receptor 6 (Homo sapiens) (UniProt O15197)
[36] = target: Epidermal growth factor receptor (Homo sapiens) (UniProt P00533)
[37] = tested on: Epidermal growth factor receptor (Homo sapiens), P00533 [UNDEFINED MUTATION]
[38] = target: Tyrosine-protein kinase SYK (Homo sapiens) (UniProt P43405)
[39] = target: Serine/threonine-protein kinase MARK2 (Homo sapiens) (UniProt Q7KZI7)
[40] = target: Macrophage colony-stimulating factor 1 receptor (Homo sapiens) (UniProt P07333)
[41] = target: Tyrosine-protein kinase ABL1 (Homo sapiens) (UniProt P00519)
[42] = target: Tyrosine-protein kinase JAK1 (Homo sapiens) (UniProt P23458)
[43] = target: Serine/threonine-protein kinase RIO2 (Homo sapiens) (UniProt Q9BVS4)
[44] = target: Ribosomal protein S6 kinase alpha-4 (Homo sapiens) (UniProt O75676)
[45] = target: Receptor tyrosine-protein kinase erbB-2 (Homo sapiens) (UniProt P04626)

Measured: residual activity

Chain of Citron Rho-interacting kinase (Homo sapiens) (O14578 whole entry): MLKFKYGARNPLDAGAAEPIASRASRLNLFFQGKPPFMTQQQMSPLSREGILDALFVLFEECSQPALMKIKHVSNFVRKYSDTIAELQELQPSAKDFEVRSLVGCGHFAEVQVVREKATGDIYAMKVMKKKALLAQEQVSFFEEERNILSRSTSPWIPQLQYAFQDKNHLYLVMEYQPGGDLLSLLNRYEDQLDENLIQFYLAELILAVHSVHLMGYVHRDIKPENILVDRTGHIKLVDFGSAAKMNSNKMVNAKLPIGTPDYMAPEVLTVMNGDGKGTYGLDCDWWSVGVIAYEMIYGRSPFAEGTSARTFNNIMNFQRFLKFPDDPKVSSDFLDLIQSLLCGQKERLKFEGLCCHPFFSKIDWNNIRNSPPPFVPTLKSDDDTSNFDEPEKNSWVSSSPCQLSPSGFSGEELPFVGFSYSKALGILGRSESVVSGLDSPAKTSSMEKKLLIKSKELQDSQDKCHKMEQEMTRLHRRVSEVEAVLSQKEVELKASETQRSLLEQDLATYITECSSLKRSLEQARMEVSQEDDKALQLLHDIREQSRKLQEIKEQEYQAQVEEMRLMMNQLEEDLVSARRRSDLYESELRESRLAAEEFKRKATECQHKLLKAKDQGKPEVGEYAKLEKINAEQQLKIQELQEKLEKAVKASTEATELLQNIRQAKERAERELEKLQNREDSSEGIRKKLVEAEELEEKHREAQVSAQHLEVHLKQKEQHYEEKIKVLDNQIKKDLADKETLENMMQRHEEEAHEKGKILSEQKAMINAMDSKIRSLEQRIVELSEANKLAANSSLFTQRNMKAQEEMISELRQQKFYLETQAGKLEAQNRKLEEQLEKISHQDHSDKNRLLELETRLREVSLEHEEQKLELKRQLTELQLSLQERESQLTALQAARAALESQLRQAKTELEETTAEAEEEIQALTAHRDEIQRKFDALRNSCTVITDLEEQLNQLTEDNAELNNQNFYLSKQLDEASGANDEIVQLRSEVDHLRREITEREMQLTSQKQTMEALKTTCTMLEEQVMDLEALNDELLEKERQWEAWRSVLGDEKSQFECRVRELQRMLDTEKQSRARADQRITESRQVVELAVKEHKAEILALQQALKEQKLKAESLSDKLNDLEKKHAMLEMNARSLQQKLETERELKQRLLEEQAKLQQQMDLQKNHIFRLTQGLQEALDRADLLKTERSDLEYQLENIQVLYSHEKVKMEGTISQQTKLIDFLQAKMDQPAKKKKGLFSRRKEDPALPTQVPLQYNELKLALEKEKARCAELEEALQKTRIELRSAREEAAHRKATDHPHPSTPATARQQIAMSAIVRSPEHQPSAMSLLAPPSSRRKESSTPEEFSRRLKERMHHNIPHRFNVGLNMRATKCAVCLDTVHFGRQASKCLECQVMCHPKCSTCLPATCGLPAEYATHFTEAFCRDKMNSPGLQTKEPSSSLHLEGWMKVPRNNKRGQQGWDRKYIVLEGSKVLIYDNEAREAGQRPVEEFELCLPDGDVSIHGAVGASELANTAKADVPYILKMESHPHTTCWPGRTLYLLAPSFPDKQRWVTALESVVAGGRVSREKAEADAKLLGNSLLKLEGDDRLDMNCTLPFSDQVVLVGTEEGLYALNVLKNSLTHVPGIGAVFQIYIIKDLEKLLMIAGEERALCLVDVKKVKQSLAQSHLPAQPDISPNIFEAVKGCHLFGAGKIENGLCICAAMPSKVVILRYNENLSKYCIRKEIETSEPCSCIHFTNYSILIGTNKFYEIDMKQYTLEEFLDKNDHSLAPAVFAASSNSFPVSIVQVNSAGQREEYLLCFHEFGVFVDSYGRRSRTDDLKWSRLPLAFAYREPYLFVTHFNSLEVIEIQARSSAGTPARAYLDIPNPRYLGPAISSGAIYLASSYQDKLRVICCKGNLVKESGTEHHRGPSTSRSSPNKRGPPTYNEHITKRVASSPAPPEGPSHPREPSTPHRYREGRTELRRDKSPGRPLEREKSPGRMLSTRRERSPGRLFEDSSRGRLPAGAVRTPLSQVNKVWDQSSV
Chain of Aurora kinase C (Homo sapiens) (Q9UQB9 whole entry, canonical isoform): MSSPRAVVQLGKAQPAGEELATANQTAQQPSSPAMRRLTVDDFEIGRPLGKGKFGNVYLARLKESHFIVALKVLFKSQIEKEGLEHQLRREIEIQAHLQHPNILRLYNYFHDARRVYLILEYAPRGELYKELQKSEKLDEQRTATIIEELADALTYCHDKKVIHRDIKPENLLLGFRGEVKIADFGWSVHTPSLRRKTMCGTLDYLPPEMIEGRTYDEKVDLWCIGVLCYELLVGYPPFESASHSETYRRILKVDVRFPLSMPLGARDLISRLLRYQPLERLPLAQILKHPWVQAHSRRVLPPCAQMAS
Chain of Receptor tyrosine-protein kinase erbB-3 (Homo sapiens) (P21860 whole entry): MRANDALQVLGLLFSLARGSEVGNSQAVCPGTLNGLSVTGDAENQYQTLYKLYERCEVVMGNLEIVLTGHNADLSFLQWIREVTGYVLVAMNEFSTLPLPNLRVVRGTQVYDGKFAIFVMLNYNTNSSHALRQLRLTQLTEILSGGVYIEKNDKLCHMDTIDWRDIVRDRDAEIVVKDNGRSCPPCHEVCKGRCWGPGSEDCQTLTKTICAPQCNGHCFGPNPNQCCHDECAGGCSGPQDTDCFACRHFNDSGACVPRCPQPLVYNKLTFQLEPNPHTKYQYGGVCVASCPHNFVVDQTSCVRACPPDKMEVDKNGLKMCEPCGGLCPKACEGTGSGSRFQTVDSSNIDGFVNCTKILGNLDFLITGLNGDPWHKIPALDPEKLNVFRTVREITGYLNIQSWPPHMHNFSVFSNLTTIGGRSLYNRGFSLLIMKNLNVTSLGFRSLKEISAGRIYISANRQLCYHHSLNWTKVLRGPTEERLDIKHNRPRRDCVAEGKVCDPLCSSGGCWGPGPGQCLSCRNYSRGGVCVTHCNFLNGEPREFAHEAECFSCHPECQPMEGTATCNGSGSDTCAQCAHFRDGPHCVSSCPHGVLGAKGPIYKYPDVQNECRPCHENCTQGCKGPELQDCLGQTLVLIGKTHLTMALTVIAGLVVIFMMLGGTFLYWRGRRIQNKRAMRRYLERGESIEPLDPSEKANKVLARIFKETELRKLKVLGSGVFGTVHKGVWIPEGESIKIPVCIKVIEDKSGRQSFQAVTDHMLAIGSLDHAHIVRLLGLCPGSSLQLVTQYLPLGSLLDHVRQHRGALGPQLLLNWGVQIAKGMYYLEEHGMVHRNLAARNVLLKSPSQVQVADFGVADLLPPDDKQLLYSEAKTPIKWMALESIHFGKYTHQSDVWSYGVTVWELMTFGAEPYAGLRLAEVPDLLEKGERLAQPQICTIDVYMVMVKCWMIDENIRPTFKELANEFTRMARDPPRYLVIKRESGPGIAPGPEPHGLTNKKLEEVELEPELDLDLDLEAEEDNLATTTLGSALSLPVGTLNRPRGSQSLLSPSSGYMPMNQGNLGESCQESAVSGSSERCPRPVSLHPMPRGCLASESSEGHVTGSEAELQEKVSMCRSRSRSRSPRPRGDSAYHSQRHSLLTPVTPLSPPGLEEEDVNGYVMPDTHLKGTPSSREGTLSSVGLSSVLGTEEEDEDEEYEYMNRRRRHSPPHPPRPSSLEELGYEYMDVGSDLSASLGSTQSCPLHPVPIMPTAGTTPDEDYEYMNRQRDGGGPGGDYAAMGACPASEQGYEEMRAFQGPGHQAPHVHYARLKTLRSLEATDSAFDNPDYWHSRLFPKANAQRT
Chain of Mast/stem cell growth factor receptor Kit (Homo sapiens), P10721 [V559D] (P10721 whole entry V559D): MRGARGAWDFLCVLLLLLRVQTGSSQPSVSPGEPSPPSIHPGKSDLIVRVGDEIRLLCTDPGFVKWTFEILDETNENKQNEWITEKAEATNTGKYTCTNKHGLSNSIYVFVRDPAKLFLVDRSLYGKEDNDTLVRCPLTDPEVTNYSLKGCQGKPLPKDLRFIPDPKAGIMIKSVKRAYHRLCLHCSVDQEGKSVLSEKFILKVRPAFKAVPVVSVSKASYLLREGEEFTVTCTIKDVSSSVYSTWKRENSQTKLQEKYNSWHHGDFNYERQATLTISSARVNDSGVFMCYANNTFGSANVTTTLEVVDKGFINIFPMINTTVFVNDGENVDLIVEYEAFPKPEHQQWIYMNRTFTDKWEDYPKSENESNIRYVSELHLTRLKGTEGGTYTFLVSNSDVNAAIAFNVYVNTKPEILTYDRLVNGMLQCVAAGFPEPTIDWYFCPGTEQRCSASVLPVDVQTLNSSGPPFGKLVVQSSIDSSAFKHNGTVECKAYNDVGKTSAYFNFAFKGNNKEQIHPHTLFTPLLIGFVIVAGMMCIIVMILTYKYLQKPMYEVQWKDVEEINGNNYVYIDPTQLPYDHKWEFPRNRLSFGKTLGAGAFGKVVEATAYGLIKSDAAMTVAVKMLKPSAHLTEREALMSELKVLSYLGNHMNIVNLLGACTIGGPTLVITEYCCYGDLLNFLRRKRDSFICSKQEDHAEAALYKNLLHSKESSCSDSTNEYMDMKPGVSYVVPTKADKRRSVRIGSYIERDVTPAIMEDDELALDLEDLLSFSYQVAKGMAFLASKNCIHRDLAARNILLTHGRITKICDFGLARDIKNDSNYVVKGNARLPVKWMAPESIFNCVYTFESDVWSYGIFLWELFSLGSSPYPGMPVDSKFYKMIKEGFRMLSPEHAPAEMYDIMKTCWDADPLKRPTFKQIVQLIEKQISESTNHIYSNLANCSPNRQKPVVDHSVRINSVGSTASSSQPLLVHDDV
Chain of Serine/threonine-protein kinase Sgk1 (Homo sapiens) (O00141 whole entry): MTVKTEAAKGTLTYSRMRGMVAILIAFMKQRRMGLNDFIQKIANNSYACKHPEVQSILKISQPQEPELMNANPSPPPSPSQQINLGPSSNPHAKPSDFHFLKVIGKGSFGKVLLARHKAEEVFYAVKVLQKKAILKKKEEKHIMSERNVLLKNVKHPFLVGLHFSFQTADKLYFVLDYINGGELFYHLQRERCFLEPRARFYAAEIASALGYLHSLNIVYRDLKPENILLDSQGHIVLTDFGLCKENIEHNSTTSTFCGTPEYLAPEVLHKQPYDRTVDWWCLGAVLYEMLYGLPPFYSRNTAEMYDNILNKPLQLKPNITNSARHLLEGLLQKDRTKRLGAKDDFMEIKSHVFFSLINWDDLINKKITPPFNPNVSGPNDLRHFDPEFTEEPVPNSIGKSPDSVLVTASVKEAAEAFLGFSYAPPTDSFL

CS(=O)(=O)N1CCCC(NC(=O)[C@H](CCC2CCCCC2)NC(=O)c2ccc(CNC(=O)c3cnc4ccccn34)cc2)C1 (stereo not given in full) [SR-302]
inactive: [1] 100% | [2] 84% | [3] 92% | [4] 77% | [5] 83% | [6] 94% | [7] 100% | [8] 100% | [9] 95% | [10] 100% | [11] 91% | [12] 100% | [13] 83% | [14] 72% | [15] 83% | [16] 100% | [17] 100% | [18] 98% | [19] 100% | [20] 100% | [21] 100% | [22] 89% | [23] 84% | [24] 89% | [25] 100% | [26] 87% | [27] 91% | [28] 100% | [29] 100% | [30] 100% | [31] 100% | [32] 82% | [33] 100% | [35] 98% | [36] 76% | [37] 66% | [38] 93% | [39] 100% | [40] 100% | [41] 61% | [42] 100% | [43] 100% | [44] 97% | [45] 100%
active: [34] 49%

CS(=O)(=O)N1CCCC(NC(=O)[C@H](CCC2CCCCC2)NC(=O)c2ccc(CNc3ncnc4c3nnn4-c3ccccc3)cc2)C1 (stereo not given in full) [SR-301]
active: [19] 44%
inactive: [1] 68% | [2] 88% | [3] 100% | [4] 60% | [5] 100% | [6] 91% | [7] 100% | [8] 91% | [9] 61% | [10] 86% | [11] 93% | [12] 100% | [13] 100% | [14] 94% | [15] 100% | [16] 100% | [17] 100% | [18] 78% | [20] 97% | [21] 100% | [22] 82% | [23] 100% | [24] 95% | [25] 98% | [26] 100% | [27] 71% | [28] 91% | [29] 100% | [30] 100% | [31] 100% | [32] 79% | [33] 100% | [34] 93% | [35] 100% | [36] 100% | [37] 100% | [38] 88% | [39] 100% | [40] 100% | [41] 82% | [42] 89% | [43] 99% | [44] 86% | [45] 100%
